These results are taken from US8394596B1 (priority 2012, dated 2013).

Format in all cases: binding
Experiment [1] deals with rabbit anti-BMAA antibody.
Experiment [2] deals with rabbit anti-BMAA antibody. The experiment is described as follows: Competitive ELISA for BMAA, second estimate of sensitivity with later-harvested antibody (Example 8). As to conditions: antibody harvested after the 6th boost. The method, then: (§1) The ELISA method: • 1. Add either 100 μL of either a BMAA solution (0, 10, 25, 50, 100, 250, 500, 1000 ng/mL of BMAA) as a calibrator/standard solutions or 100 μL of a test sample into the wells of the test strips (coated with anti-rabbit IgG). Analysis in duplicate or triplicate is recommended. • 2. Add 50 μL of enzyme conjugate solution (BMAA-HRP) to the individual wells successively using a multi-channel pipette or a stepping pipette. • 3. Add 50 μL of antibody solution (rabbit anti-BMAA; for example one made by diluting by a factor of 8000 antiserum from a rabbit immunized according to Example 3 using BMAA-BSA as the immunogen) to the individual wells successively using a multi-channel pipette or a stepping pipette. Cover the wells with parafilm or tape and mix the contents by moving the strip holder in a circular motion on the benchtop for 30 seconds. Be careful not to spill the contents. The foregoing creates a total assay volume of 200 μL. • 4. Incubate the strips for 90 minutes at room temperature. • 5. Remove the covering and decant the contents of the wells into a sink. Wash the strips four times using the diluted washing buffer solution (1×PBS with 0.1% Tween), using at least a volume of 250 μL of washing buffer for each well in each washing step. Remaining buffer in the wells should be removed by patting the inverted plate dry on a stack of paper towels. • 6. Add 150 μL of substrate (color) solution ((TMB), BioFX cat #TMBW-1000 from Surmodics), to the wells. Cover the wells with parafilm or tape and mix the contents by moving the strip holder in a circular motion on the benchtop for 30 seconds. Be careful not to spill the contents. Incubate the strips for 30 minutes at room temperature. Protect the strips from direct sunlight. • 7. Add 100 μL of stop solution (2N HCl) to the wells in the same sequence as for the substrate solution. • 8. Read the absorbance at 450 nm using a microplate ELISA photometer within 15 minutes after the addition of stopping solution using a computer interfaced ELISA reader (Molecular Devices, Sunnyvale, Calif.). BMAA concentration in the unknown samples was estimated by comparison with a concurrently-run standard curve.
The procedure of Example 6 was followed except that (1) the BMAA concentrations tested were 5, 10, 25, 100, 250 and 500 ppb (corresponding to 5, 10, 25, 100, 250 and 500 ng/ml) and (2) an antibody preparation harvested later than that used for Example 6 was used. The antibodies harvested for this example were harvested after the 6th boost.
The sensitivity of the assay was estimated to be 2.5 ppb.

In experiment [3] the test system is rabbit anti-BMAA antibody. The experiment in a line: Competitive ELISA for BMAA on anti-rabbit IgG coated plates, estimate of sensitivity (Example 6). As to conditions: antibody harvested after fourth booster. The procedure: Rabbits were immunized with 0.5-1.0 mg of immunizing conjugate per rabbit per injection. The immunizing conjugate was emulsified with Complete Freund's Adjuvant for primary injections and with Incomplete Freund's Adjuvant for booster injections. Three or four booster injections were performed at monthly intervals to raise the desired titers. The rabbits were bled on 12±3 days following each booster injection. Antisera were monitored for titer and analyte specificity by capturing the relevant antibodies on ELISA plates coated with anti-rabbit IgG. The captured antibodies were measured in a subsequent step by incubating the plates with a BMAA-horseradish peroxidase (BMAA-HRP).
Three rabbits were immunized with an immunogen in which EDC was used to link BMAA to BSA according to Example 1. Three rabbits were immunized with an immunogen in which DSS was used to link BMAA to BSA according to Example 2. The rabbit with the highest antibody titer when tested with sera collected 14 days after the fourth booster was a rabbit that had been immunized with an immunogen in which DSS was used to link BMAA to BSA according to Example 2. Antibodies from that rabbit, harvested 14 days after the fourth booster were used to generate the data obtained from Example 6 below. Antibodies from that rabbit, harvested 14 days after the fourth booster were used to generate the data obtained from Example 8 below.
as §1
The procedure of Example 5 was followed using known amounts of BMAA. (The antibody preparation was that specified in Example 3 as having been used for Example 6). “Concentration (ng/ml)” refers to the concentration of the BMAA in the 100 μL of calibrator/standard solution referred to in step (1) of Example 5. […]

Setting [4] is: relative to BMAA 50% inhibition at 170 ng/ml, 0.2% compounds tested up to 500 ug/mL, 0.1% up to 1 mg/ml.

Where two headings read alike, the source gives them in different places.

Turning to `CNC[C@H](N)C(=O)O` [BMAA, β-N-methylamino-L-alanine], the “concentration of BMAA causing 50% inhibition in the assay” value in experiment [1] (concentration in the 100 μL standard solution) is reported as 170 nanograms/ml. The compound further registered a Cross-reactivity in experiment [1] (setting [4]) of 100%. For the same compound, the “B/Bo (%)” value in experiment [2] (BMAA 5 ng/ml) was 93%; in experiment [2] (BMAA 10 ng/ml), 88%; in experiment [2] (BMAA 25 ng/ml) it was 77%; in experiment [2] (BMAA 100 ng/ml), 49%; in experiment [2] (BMAA 250 ng/ml), 30%; in experiment [2] (BMAA 500 ng/ml), 19%. In addition, the “B/Bo (%)” value in experiment [3] (BMAA 10 ng/ml in 100 μL standard solution) was 93%; in experiment [3] (BMAA 25 ng/ml in 100 μL standard solution), 85%; in experiment [3] (BMAA 50 ng/ml in 100 μL standard solution) it was 77%; in experiment [3] (BMAA 100 ng/ml in 100 μL standard solution), 64%; in experiment [3] (BMAA 250 ng/ml in 100 μL standard solution), 44%; in experiment [3] (BMAA 500 ng/ml in 100 μL standard solution), 29%. The “B/Bo (%)” value in experiment [3] (BMAA 1000 ng/ml in 100 μL standard solution) was 18%. Moreover, the “sensitivity of the assay: concentration of BMAA needed to reduce B/Bo by 5 percent” value in experiment [2] (Example 8) is on record as 2.5 ppb; in experiment [3] (Example 6) it was 7.5 ppb.
As to `Cl.NCCC(N)C(=O)O` (racemic) [D,L-2,4-Diaminobutyric acid hydrochloride], the Cross-reactivity in experiment [1] (setting [4]) is 0.1%.
The same measure, in the same setting: in the case of `Cl.N[C@@H](CS)C(=O)O` [L-Cysteine hydrochloride] it was 0.2%.
On the same count and under the same terms, the result for `NCCCC(=O)O` [γ-Aminobutyric acid] reads 0.2%.
For `N[C@@H](CC(=O)O)C(=O)O` [L-Aspartic acid], in experiment [1], the Cross-reactivity is 0.2%.
As to `N[C@@H](CCC(=O)O)C(=O)O` [L-Glutamic acid], in experiment [1] (setting [4]), the Cross-reactivity is given as 0.2%.
